The values below come from article PMC3112249 (Cancer chemotherapy and pharmacology, 2011).

Data set [1] is classed as in vivo, human. The note with it: paclitaxel 100 mg/m^2 IV over 3 h, cycle 1; patients taking protease inhibitors.
For data set [2], the system named is HIV-associated Kaposi's sarcoma. Description: Objective response, progression-free survival and survival on paclitaxel. In kind it is in vivo, human.
The conditions of data set [3]: 107 male patients, paclitaxel 100 mg/m^2 intravenously over 3 hours every 2 weeks, 77% received protease inhibitors; cited from earlier work.
The conditions of data set [4]: cited from earlier work.
The mark [5] stands for this setting: 20 evaluable patients, no prior paclitaxel, 100 mg/m^2 IV every 14 days.

For the molecule `CC(=O)O[C@H]1C(=O)[C@@]2(C)[C@H]([C@H](OC(=O)c3ccccc3)[C@]3(O)C[C@H](OC(=O)[C@H](O)[C@@H](NC(=O)c4ccccc4)c4ccccc4)C(C)=C1C3(C)C)[C@]1(OC(C)=O)CO[C@@H]1C[C@@H]2O` [Paclitaxel], under “20 patients, paclitaxel as first line therapy”, the “treatment-related infection of grade 3 or higher, patients” value worked out at 15%. For the same molecule, the “Infection Grade 3, patients no. (%)” value (PI (n=15)) is 3 (20%). Also, where the note is “human, in vivo”, the “Abdominal cramps Grade 3, patients no. (%)” value was 1 (7%); the “Anemia Grade 3, patients no. (%)” value was 2 (13%); the “Anemia Grade 4, patients no. (%)” value is listed as 1 (7%); the “Cardiac toxicity Grade 4, patients no. (%)” value is recorded as 1 (5%). Besides, where the note is “human, in vivo”, the “Eye irritation Grade 3, patients no. (%)” value was 1 (7%); the “Fatigue Grade 3, patients no. (%)” value is recorded as 2 (13%); the “GU toxicity Grade 3, patients no. (%)” value was 1 (7%); the “Granulocytopenia Grade 3, patients no. (%)” value was 3 (20%). Also, where the note is “human, in vivo”, the “Ileus Grade 4, patients no. (%)” value is on record as 1 (7%); the “Leukopenia Grade 4, patients no. (%)” value was 1 (20%); the “Liver toxicity Grade 3, patients no. (%)” value is on record as 1 (7%); the “Liver toxicity Grade 4, patients no. (%)” value is reported as 1 (7%). Where the note is “human, in vivo”, the “Metabolic toxicity Grade 3, patients no. (%)” value was 1 (7%); the “Metabolic toxicity Grade 4, patients no. (%)” value was 1 (7%); the “Neuro-motor toxicity Grade 3, patients no. (%)” value is reported as 1 (7%); the “Pulmonary toxicity Grade 3, patients no. (%)” value is 1 (7%). Further, where the note is “human, in vivo”, the “Pulmonary toxicity Grade 4, patients no. (%)” value is recorded as 1 (20%); the “Skin toxicity Grade 3, patients no. (%)” value is listed as 1 (20%); the “Thrombocytopenia Grade 4, patients no. (%)” value is on record as 1 (7%); the “WORST DEGREE of toxicity Grade 3, patients no. (%)” value is 7 (47%). Under “human, in vivo”, the “treatment-related anemia of grade 3 or higher, patients” value was found to be 15% and the “treatment-related granulocytopenia of grade 3 or higher, patients” value is on record as 40%. For the same molecule, in data set [1], the “duration spent at a paclitaxel concentration > 0.05 μM” value is reported as 19.0 (3.0–27.8) hr. Further, in data set [2] (setting [5]), the “best response: partial response, patients” value is 30%; the “best response: progressive disease, patients” value is on record as 10%; the “best response: stable disease (SD), patients” value was 50%. For the same molecule, the “objective response, patients” value in data set [2] (20 patients assessable for response) was 30%. Besides, the “three year survival rate” value in data set [2] (20 patients, no prior paclitaxel) was determined as 67%. Further, in data set [2] (20 patients, no prior paclitaxel, 100 mg/m^2 IV every 14 days), the “median progression free survival” value is on record as 7.8 months. In data set [2] (20 patients, no prior paclitaxel, median follow-up of 50 months in the 13 surviving patients), the median overall survival entry was “had not been reached”. Also, in data set [3], the “differences in the incidence or severity of toxicity, patients receiving protease inhibitors compared to those who did not” value is reported as “No differences”.

With `O=P1(N(CCCl)CCCl)NCCCO1` (centres unmarked) [cyclophosphamide], the “clearance reduced compared to historical controls” value in data set [4] (29 patients receiving CHOP chemotherapy with HAART) is listed as 1.5 fold.

In the case of `COc1cccc2c1C(=O)c1c(O)c3c(c(O)c1C2=O)C[C@@](O)(C(=O)CO)C[C@@H]3O[C@H]1C[C@H](N)[C@H](O)[C@H](C)O1` [doxorubicin], the effects on clearance result in data set [4] (human, in vivo) is “No significant effects”.
